Laboratory results taken from ChEMBL document CHEMBL4007503, “Easy and rapid preparation of benzoylhydrazides and their diazene derivatives as inhibitors of 15-lipoxygenase” (Bioorg Med Chem Lett, 2017).
Values belong to the compound of their own block, whether it stands above or below them. Activity calls are given as the source filed them. The calls are words filed in the database; no cut-off is given here.

Tests used:
Glycine max [1] = assay: Inhibition of soybean 15-LOX at 10 uM using linoleic acid as substrate relative to control
[2] = target: T1, Polyunsaturated fatty acid lipoxygenase ALOX15 (Homo sapiens, UniProt P16050); assay: Inhibition of 15-LOX in human primary polymorphonuclear leukocytes
T1 sequence (P16050 whole entry): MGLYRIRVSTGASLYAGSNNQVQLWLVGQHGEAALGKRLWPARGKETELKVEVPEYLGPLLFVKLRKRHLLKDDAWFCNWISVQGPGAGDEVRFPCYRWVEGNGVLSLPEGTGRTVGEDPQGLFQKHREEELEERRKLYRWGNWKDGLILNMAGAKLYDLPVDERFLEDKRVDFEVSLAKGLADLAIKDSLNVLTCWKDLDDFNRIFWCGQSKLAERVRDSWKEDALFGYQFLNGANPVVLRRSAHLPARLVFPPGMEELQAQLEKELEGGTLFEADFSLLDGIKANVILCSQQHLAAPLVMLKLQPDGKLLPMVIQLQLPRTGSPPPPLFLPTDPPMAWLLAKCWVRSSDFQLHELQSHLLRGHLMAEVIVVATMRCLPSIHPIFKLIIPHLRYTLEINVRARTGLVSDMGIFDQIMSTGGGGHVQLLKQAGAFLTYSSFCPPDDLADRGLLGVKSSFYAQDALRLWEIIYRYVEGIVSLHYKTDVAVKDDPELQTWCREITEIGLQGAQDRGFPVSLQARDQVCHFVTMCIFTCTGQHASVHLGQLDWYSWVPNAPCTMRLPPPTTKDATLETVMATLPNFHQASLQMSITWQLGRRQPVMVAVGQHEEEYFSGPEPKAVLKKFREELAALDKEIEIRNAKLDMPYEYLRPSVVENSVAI

[3] = target: T1, Polyunsaturated fatty acid lipoxygenase ALOX15; assay: Inhibition of thapsigargin-stimulated 15-LOX in human primary polymorphonuclear leukocytes using arachidonic acid as substrate preincubated for 5 mins followed by thapsigargin stimulation for 5 mins by RP-HPLC method
[4] = Competitive inhibition of soybean 15-LOX using linoleic acid as substrate by Lineweaver-Burk plot analysis; design: species or system Glycine max
[5] = Inhibition of soybean 15-LOX using linoleic acid as substrate; design: species or system Glycine max
[6] = Antioxidant activity assessed as ferric ion reducing activity by measuring Fe2+ levels using Fe3+-TPTZ after 40 mins by FRAP assay; assay type: functional
Glycine max [7] = assay: Potency index, ratio of 4-methyl-2-(4-methylpiperazinyl)-pyrimido[4,5b]benzothiazine IC50 to compound IC50 for soybean 15-LOX
Glycine max [8] = assay: Inhibition of soybean 15-LOX assessed as Vmax for substrate using linoleic acid as substrate by Lineweaver-Burk plot analysis
Glycine max [9] = assay: Inhibition of soybean 15-LOX assessed as Km for substrate using linoleic acid as substrate by Lineweaver-Burk plot analysis
[10] = Antioxidant activity assessed as cupric ion reducing activity after 30 mins by CUPRAC assay; assay type: functional

- inhibition (Glycine max [1]): 44%
Compound: O=C(/N=N/c1ccc(Br)cc1)c1ccccc1

- IC50 [2]: 0.4 µM
Compound: CC(c1cc2ccccc2s1)N(O)C(N)=O (stereo not given) [ZILEUTON]

- IC50 [3]: 0.13 µM
Compound: O=C(/C=C/c1ccc(O)c(O)c1)OCCc1ccccc1 [CAFFEIC ACID PHENETHYL ESTER]

- inhibition (Glycine max [1]): 10%
Compound: NS(=O)(=O)c1ccc(NNC(=O)c2ccccc2)cc1

- Ki [4]: 0.81 µM
- IC50 [5]: 5.35 µM
- Ratio IC50 (Glycine max [7]): 3.4
- Vmax (Glycine max [8]): 0.46 µM/s
- Km (Glycine max [9]): 89.6 µM
- inhibition (Glycine max [1]): 93%
Compound: Cc1ccc(NNC(=O)c2ccccc2)cc1
- Activity [6]: Active

- Ki [4]: 3.89 µM
- IC50 [5]: 9.78 µM
- Vmax (Glycine max [8]): 0.57 µM/s
- Km (Glycine max [9]): 140 µM
- inhibition (Glycine max [1]): 80%
Compound: N#Cc1ccc(/N=N/C(=O)c2ccccc2)cc1

- inhibition (Glycine max [1]): 28%
Compound: O=C(NNc1ccc(Br)cc1)c1ccccc1
- Activity [6]: Active

- inhibition (Glycine max [1]): 73%
Compound: COc1ccc(NNC(=O)c2ccccc2)cc1
- Activity [6]: Active

- inhibition (Glycine max [1]): 19%
Compound: COc1ccc(/N=N/C(=O)c2ccccc2)cc1

- inhibition (Glycine max [1]): 17%
Compound: O=C(NNc1ccc([N+](=O)[O-])cc1)c1ccccc1

- IC50 [5]: 6.97 µM
- inhibition (Glycine max [1]): 87%
Compound: O=C(/N=N/c1ccccc1)c1ccccc1

- inhibition (Glycine max [1]): 44%
Compound: Cc1ccc(/N=N/C(=O)c2ccccc2)cc1

- inhibition (Glycine max [1]): 9%
Compound: N#Cc1ccc(NNC(=O)c2ccccc2)cc1

- inhibition (Glycine max [1]): 33%
Compound: O=C(NNc1ccccc1)c1ccccc1
- Activity [6]: Active
- Activity [10]: Active

- inhibition (Glycine max [1]): 34%
Compound: O=C(/N=N/c1ccc([N+](=O)[O-])cc1)c1ccccc1
